Assay results reported in US20100028457A1, “AGENT FOR PREVENTION OR TREATMENT OF BLOOD GLUCOSE LEVEL ELEVATION” (UNIVERSITY OF THE RYUKYUS, priority 2006, published 2010).

How the values were obtained:
insulin mRNA in pancreas = test: Quantification of expression of insulin mRNA in pancreas (real-time quantitative PCR); assay type: in vivo; details: KKAy mice after feeding; ratio to GAPDH mRNA; control group 5.12×10^4 (100%), normal mice 11%
Experimental: (§4) According to the conventional method, RNA was extracted from the cells of pancreas and kidney. cDNA was prepared by a reverse transcription reaction from the RNA and quantitative determination of expression amount of mRNA related to diabetes was carried out by means of a real-time quantitative PCR. In the following experiments, quantitative determination of the expression amount of mRNA was analyzed using Mx 3000P (manufactured by Stratagene). In all cases, condition for the PCR was that a hot start was conduced at 95° C. for 10 minutes and then a cycle comprising 95° C. for 30 seconds, 60° C. for 1 minute and 72° C. for 30 seconds was repeated for 45 times. At the same time, dilution rows of five stages were prepared using a control RNA of 5 ng/μl concentration and expression amount of RNA was determined from the resulting standard curve. As to a reagent for the PCR, Brilliant SYBR Green QPCR Master Mix (manufactured by Stratagene) was used in accordance with a protocol for its manual for use. […] Incidentally, expression amount of mRNA of a test substance in each test was indicated in terms of a ng ratio of the commonly expressed GAPDH enzyme to the amount of mRNA (internal standard).
Expression amount of insulin mRNA in the pancreas was measured by the PCR using the following primers.

plasma leptin = test: Plasma leptin concentration in KKAy mice at end of feeding; assay type: in vivo; details: 56th day, control group 7.3 ng/ml (100%), normal mice 15%
Experimental: (§1) Firstly, four kinds of feeds were prepared for animal tests.
(§2) Feeding of the mice of those four groups was conducted in a single feeding manner and water was freely taken by each mouse.
(§3) Blood glucose level during the feeding period (until the 51st day) and blood glucose level, blood insulin concentration, blood leptin concentration and adiponectin concentration were measured when the feeding finished (on the 56th day) whereby the action of each ingredient on the mice was checked. Further, in order to compare with the diabetic model mice, normal mice (eight males) of the same 13 weeks age were used as a normal group and their blood was collected upon finishing the feeding followed by measuring each of the above concentrations.
Concentration of leptin was also measured upon finishing the feeding (on the 56th day).

PPAR-α mRNA in pancreas = test: Quantification of expression of PPAR-α mRNA in pancreas (real-time quantitative PCR); assay type: in vivo; details: KKAy mice after feeding; ratio to GAPDH mRNA; control group 0.61 (100%), normal mice 123%
Experimental: as §4
The expression amount of the PPAR-α mRNA was measured by the PCR using the following primers.

plasma insulin = test: Plasma insulin concentration in KKAy mice at end of feeding; assay type: in vivo; details: 56th day, control group 7.0 ng/ml (100%), normal mice 16%
Experimental: as §1, §2, §3
Concentration of insulin in plasma was measured upon finishing the feeding (on the 56th day).

[1] = test system: PPARγ in bone marrow cells of femur; test: Expression of PPARγ mRNA in bone marrow cells of femur (real-time quantitative PCR); assay type: in vivo; details: KKAy mice after feeding; control group 5.05×10^−2 (100%)
PPAR-α mRNA in kidney = test: Quantification of expression of PPAR-α mRNA in kidney (real-time quantitative PCR); assay type: in vivo; details: KKAy mice after feeding; ratio to GAPDH mRNA; control group 0.532 (100%)
Experimental: as §4
Expression amount of PPAR-α mRNA in kidney was measured by the PCR using the following primers.

PPAR-γ mRNA in pancreas = test: Quantification of expression of PPAR-γ mRNA in pancreas (real-time quantitative PCR); assay type: in vivo; details: KKAy mice after feeding; ratio to GAPDH mRNA; control group 0.28 (100%), normal mice 161%
Experimental: as §4
The expression amount of PPAR-γ mRNA was measured by the PCR using the following primer.

[2] = test system: adiponectin mRNA in pancreas; test: Quantification of expression of adiponectin mRNA in pancreas (real-time quantitative PCR); assay type: in vivo; details: KKAy mice after feeding; ratio to GAPDH mRNA; control group 1.07 (100%), normal mice 145%
Experimental: as §4
Expression amount of adiponectin mRNA was measured by the PCR using the following primers.

PPAR-γ mRNA in kidney = test: Quantification of expression of PPAR-γ mRNA in kidney (real-time quantitative PCR); assay type: in vivo; details: KKAy mice after feeding; ratio to GAPDH mRNA; control group 0.56 (100%)
Experimental: as §4
Expression amount of PPAR-γ mRNA in kidney which adjusts adiponectin and its expression promoting the fatty acid combustion in tissues thereof was measured by the PCR using the following primers.

plasma adiponectin = test: Plasma adiponectin concentration in KKAy mice at end of feeding; assay type: in vivo; details: 56th day, control group 1.1 μg/ml (100%), normal mice 46%
Experimental: as §1, §2, §3
It has been said that a plasma adiponectin which is an anti-antidiabetic and anti-arteriosclerotic factor derived from fat tissues enhances insulin sensitivity and improves insulin resistant diabetes due to its action of activating the fatty acid oxidation in systemic muscles and reducing the neutral fat amount (Iichiro Shimomura, Toru Funahashi and Yuji Matsuzawa: Adiponectin—Anti-antidiabetic and anti-arteriosclerotic factor derived from fat tissues, Molecular Medicine, Vol. 39, No. 4, 416-423, 2002). […] The concentration of adiponectin was also measured upon finishing the feeding (on the 56th day).

[3] = test system: adiponectin mRNA in kidney; test: Quantification of expression of adiponectin mRNA in kidney (real-time quantitative PCR); assay type: in vivo; details: KKAy mice after feeding; ratio to GAPDH mRNA; control group 2.53×10^−3 (100%)
Experimental: as §4
Expression amount of adiponectin mRNA in kidney was measured by the PCR using the following primers.

[4] = test system: spontaneously obese insulin-resistant diabetic mice (KKAy); test: Blood glucose level in KKAy mice fed test feeds; assay type: in vivo; details: for blood glucose level upon finishing the feeding, % of control group: 56th day, control group 306 mg/dl (100%), normal mice 34%; for blood glucose level, mean value: tail vein blood
Experimental: as §1, §2, §3
During the feeding period for the two months, blood was collected from tail vein of the mice upon the initiation of the feeding (on the 0th day) and on the 15th, 37th and 51st days from the initiation of the feeding and the blood glucose level therein was measured.

[5] = test system: patients suffering from osteoporosis; details: 32 osteoporosis patients, daily dose 6.4 g (1.7 g as Sr), three months to three years; cited from earlier work
[6] = 15th day of feeding, control group 214
[7] = 37th day of feeding, control group 386
[8] = 51st day of feeding, control group 339
[9] = initiation of feeding (0th day), control group 167

O=[Si]([O-])[O-].[Na+].[Na+] [Si group, sodium metasilicate]
expression amount of insulin mRNA in pancreas, % of control group (insulin mRNA in pancreas): 9%
plasma leptin concentration, % of control group (plasma leptin): 76%
expression amount of PPAR-α mRNA in pancreas, % of control group (PPAR-α mRNA in pancreas): 116%
plasma insulin concentration, % of control group (plasma insulin): 68%
expression amount of PPARγ in bone marrow cells of femur, % of control group [1]: 50%
expression amount of PPAR-α mRNA in kidney, % of control group (PPAR-α mRNA in kidney): 171%
expression amount of PPAR-γ mRNA in pancreas, % of control group (PPAR-γ mRNA in pancreas): 125%
expression amount of adiponectin mRNA in pancreas, % of control group [2]: 128%
expression amount of PPAR-γ mRNA in kidney, % of control group (PPAR-γ mRNA in kidney): 141%
plasma adiponectin concentration, % of control group (plasma adiponectin): 70%
expression amount of adiponectin mRNA in kidney, % of control group [3]: 135%
blood glucose level upon finishing the feeding, % of control group [4]: 86%
blood glucose level, mean value [4, 6]: 231 mg/dL
blood glucose level, mean value [4, 7]: 268 mg/dL
blood glucose level, mean value [4, 8]: 235 mg/dL
blood glucose level, mean value [4, 9]: 156 mg/dL

[Cl-].[Cl-].[Sr+2] [Sr group, strontium chloride]
expression amount of insulin mRNA in pancreas, % of control group (insulin mRNA in pancreas): 64%
plasma leptin concentration, % of control group (plasma leptin): 71%
expression amount of PPAR-α mRNA in pancreas, % of control group (PPAR-α mRNA in pancreas): 104%
plasma insulin concentration, % of control group (plasma insulin): 70%
expression amount of PPARγ in bone marrow cells of femur, % of control group [1]: 65%
expression amount of PPAR-α mRNA in kidney, % of control group (PPAR-α mRNA in kidney): 169%
expression amount of PPAR-γ mRNA in pancreas, % of control group (PPAR-γ mRNA in pancreas): 181%
expression amount of adiponectin mRNA in pancreas, % of control group [2]: 117%
expression amount of PPAR-γ mRNA in kidney, % of control group (PPAR-γ mRNA in kidney): 136%
plasma adiponectin concentration, % of control group (plasma adiponectin): 42%
expression amount of adiponectin mRNA in kidney, % of control group [3]: 123%
blood glucose level upon finishing the feeding, % of control group [4]: 55%
blood glucose level, mean value [4, 6]: 200 mg/dL
blood glucose level, mean value [4, 7]: 288 mg/dL
blood glucose level, mean value [4, 8]: 247 mg/dL
blood glucose level, mean value [4, 9]: 150 mg/dL

CC(O)C(=O)[O-].CC(O)C(=O)[O-].[Sr+2] (stereo not drawn) [strontium lactate]
patients in whom improvement was achieved [5]: 84%
